Experimental data reported in BindingDB's records for doi:10.1111/cbdd.12131 (University of Pisa, 2013).

How the values were obtained:
[1] = target: Adenosine receptor A1 (rat); assay: For A1 adenosine receptors, […] of protein were incubated for 60 min at 25°C with [3H]DPCPX 0.5 nM (Kd = 0.4 nM) and increasing concentrations of the compounds, in a final volume of 0.4 mL of Tris-HCl buffer. Binding reaction was terminated by dilution with ice-cold 50 mM Tris-HCl buffer, pH 7.4.For A2A and A3 adenosine receptors, […]
Adenosine receptor A1 = target: T1, Adenosine receptor A1 (Rattus norvegicus, UniProt P25099); assay: Radiological Binding Assay; details: pH 7.4
T1 sequence (P25099 whole entry): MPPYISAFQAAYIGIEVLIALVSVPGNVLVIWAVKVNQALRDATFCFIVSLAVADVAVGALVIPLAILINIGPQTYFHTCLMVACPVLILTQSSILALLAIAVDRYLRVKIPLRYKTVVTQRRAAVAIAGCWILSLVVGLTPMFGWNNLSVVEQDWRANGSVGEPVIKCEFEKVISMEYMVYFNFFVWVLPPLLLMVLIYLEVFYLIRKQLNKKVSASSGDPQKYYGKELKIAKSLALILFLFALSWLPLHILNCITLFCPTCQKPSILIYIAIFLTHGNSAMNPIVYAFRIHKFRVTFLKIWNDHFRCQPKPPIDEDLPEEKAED
Protocol: For A1 adenosine receptors, […] of protein were incubated for 60 min at 25°C with [3H]DPCPX 0.5 nM (Kd = 0.4 nM) and increasing concentrations of the compounds, in a final volume of 0.4 mL of Tris-HCl buffer. Binding reaction was terminated by dilution with ice-cold 50 mM Tris-HCl buffer, pH 7.4.For A2A and A3 adenosine receptors, […] of protein were incubated with [3H]ZM241385 6 nM (Kd = 4 nM) in the experiments involving A2A and with [3H]NECA 15 nM (Kd = 150 nM) involving A3 and the compounds to be assayed, at fixed concentration (10 µM) or at increasing concentrations of the compounds in duplicate, in a final volume of 0.4 mL of Tris-HCl buffer for 120 min at 25°C. Non-specific binding was measured in the presence of 100 µM NECA in the case of A2A and 100 µM R-PIA in the case of A3 binding assay. Bound radioactivity of all samples was measured in a liquid scintillation counter (1600 TR Packard) after the addition of 4 mL of scintillation liquid (Emulsifier-Safe; Hewlett-Packa

Adenosine receptor A2a = assay: For A1 adenosine receptors, […] of protein were incubated for 60 min at 25°C with [3H]DPCPX 0.5 nM (Kd = 0.4 nM) and increasing concentrations of the compounds, in a final volume of 0.4 mL of Tris-HCl buffer. Binding reaction was terminated by dilution with ice-cold 50 mM Tris-HCl buffer, pH 7.4.For A2A and A3 adenosine receptors, […]

Compound | Ki [1] | Ki (Adenosine receptor A1) | Ki (Adenosine receptor A2a)
Nc1nc(-c2ccccc2)nc2c1nnn2Cc1ccccc1F [9-(ortho-fluorobenzyl)-2-phenyl-azaadenine (1bis)] | 0.0038 µM | 0.0038 µM | 
O=C(Nc1nc(-c2ccccc2)nc2c1nnn2Cc1ccccc1F)C1CC1 [N-[9-(ortho-fluorobenzyl)-2-phenyl-9H-8-azapurin-6-yl]-amides (2)] | 0.0092 µM |  | 0.292 µM
O=C(Nc1nc(-c2ccccc2)nc2c1nnn2Cc1ccccc1F)C1CCC1 [N-[9-(ortho-fluorobenzyl)-2-phenyl-9H-8-azapurin-6-yl]-amides (3)] | 0.00071 µM |  | 0.072 µM
O=C(Nc1nc(-c2ccccc2)nc2c1nnn2Cc1ccccc1F)C1CCCC1 [N-[9-(ortho-fluorobenzyl)-2-phenyl-9H-8-azapurin-6-yl]-amides (4)] | 0.0014 µM |  | 0.19 µM
O=C(Nc1nc(-c2ccccc2)nc2c1nnn2Cc1ccccc1F)C1CCCCC1 [N-[9-(ortho-fluorobenzyl)-2-phenyl-9H-8-azapurin-6-yl]-amides (5)] | 0.0021 µM |  | 0.413 µM
O=C(Nc1nc(-c2ccccc2)nc2c1nnn2Cc1ccccc1F)c1ccco1 [N-[9-(ortho-fluorobenzyl)-2-phenyl-9H-8-azapurin-6-yl]-amides (6)] | 0.0055 µM |  | 0.224 µM
O=C(Nc1nc(-c2ccccc2)nc2c1nnn2Cc1ccccc1F)c1ccoc1 [N-[9-(ortho-fluorobenzyl)-2-phenyl-9H-8-azapurin-6-yl]-amides (7)] | 0.0023 µM |  | 0.091 µM
O=C(Nc1nc(-c2ccccc2)nc2c1nnn2Cc1ccccc1F)c1cccc(Cl)c1 [N-[9-(ortho-fluorobenzyl)-2-phenyl-9H-8-azapurin-6-yl]-amides (8)] | 0.043 µM |  | 
O=C(Nc1nc(-c2ccccc2)nc2c1nnn2Cc1ccccc1F)c1cccc(F)c1 [N-[9-(ortho-fluorobenzyl)-2-phenyl-9H-8-azapurin-6-yl]-amides (9)] | 0.0055 µM |  | 
O=C(Nc1nc(-c2ccccc2)nc2c1nnn2Cc1ccccc1F)c1cccc([N+](=O)[O-])c1 [N-[9-(ortho-fluorobenzyl)-2-phenyl-9H-8-azapurin-6-yl]-amides (11)] | 0.028 µM |  | 
O=C(Nc1nc(-c2ccccc2)nc2c1nnn2Cc1ccccc1F)c1ccc([N+](=O)[O-])cc1 [N-[9-(ortho-fluorobenzyl)-2-phenyl-9H-8-azapurin-6-yl]-amides (12)] | 0.014 µM |  | 
O=C(Nc1nc(-c2ccccc2)nc2c1nnn2Cc1ccccc1F)c1ccc(I)cc1 [N-[9-(ortho-fluorobenzyl)-2-phenyl-9H-8-azapurin-6-yl]-amides (13)] | 0.092 µM |  | 
Nc1ccc(C(=O)Nc2nc(-c3ccccc3)nc3c2nnn3Cc2ccccc2F)cc1 [N-[9-ortho-fluorobenzyl)-2-phenyl-9H-8-azapurin-6-yl]-amides (15)] | 0.018 µM |  | 
